# Reference: patent publication US6355785B1, “Guanosine-rich oligonucleotide integrase inhibitors” (Aronex Pharmaceuticals, Inc., priority 1993, dated 2002)
# “And” between values parts separate entries of the source, which are not always exact repeats. Equal entries are not always repeated. Where two headings read alike, the source gives them in different places.
# Key:
# [1] = system: HIV-1 laboratory isolates; assay: HIV-1 infection of PBMCs (p24); format: cell-based; details: read-out: IC50 viral production
# HIV-1IIIB = assay: Time of drug addition study, MT-4 cells (p24); format: cell-based; details: 100-fold IC50, MOI 1, p24 at 29 hour
# HIV-1 clinical isolates = assay: microbe, parasite or virus in culture; format: cell-based; details: PBLs, read-out: IC50 viral production
# [2] = system: HIV-1 strains (SKI, RF, DV, IIIB, ADP/141); assay: microbe, parasite or virus in culture; format: cell-based; details: for IC90: read-out: IC90 (cpe assay)
substance,measurement,setting,value
"5′-gtggtgggtgggtgggt-3′ (GTGGTGGGTGGGTGGGT; phosphorothioate termini, further chemistry not given here) [T30177, pPT version of parent compound I100-15, 17 mer]",IC50,[1]; HIV-1 IIIB,120 nM
same,IC50,[1]; HIV-1 JRCSF,280 ± 40 nM
same,IC50,[1]; HIV-1 MN,1350 ± 100 nM
same,IC50,[1]; HIV-1 RF,750 ± 130 nM
same,delay of drug addition post-infection at which inhibitory effect is lost,HIV-1IIIB,one hour
"5′-gtggtgggtgggtgggt-3′ [T30177] (GTGGTGGGTGGGTGGGT; phosphorothioate termini, further chemistry not given here) [pPT version of parent compound I100-15, 17 mer]",% CD4,"HIV-1 infected PBMCs; IIIB, drug 0.1 μM, day 7",1%
same,% CD8,"HIV-1 infected PBMCs; IIIB, drug 0.1 μM, day 7",98%
same,CD4/CD8 Ratio,"HIV-1 infected PBMCs; IIIB, drug 0.1 μM, day 7",0.01
same,% CD4,"HIV-1 infected PBMCs; IIIB, drug 1.0 μM",18%
same,% CD8,"HIV-1 infected PBMCs; IIIB, drug 1.0 μM",85%
same,CD4/CD8 Ratio,"HIV-1 infected PBMCs; IIIB, drug 1.0 μM",0.21
same,% CD4,"HIV-1 infected PBMCs; IIIB, drug 5.0 μM",27%
same,% CD8,"HIV-1 infected PBMCs; IIIB, drug 5.0 μM",83%
same,CD4/CD8 Ratio,"HIV-1 infected PBMCs; IIIB, drug 5.0 μM",0.33
same,% CD4,"HIV-1 infected PBMCs; IIIB, drug 10.0 μM",27%
same,% CD8,"HIV-1 infected PBMCs; IIIB, drug 10.0 μM",83%
same,CD4/CD8 Ratio,"HIV-1 infected PBMCs; IIIB, drug 10.0 μM",0.33
same,% CD4,"HIV-1 infected PBMCs; MN, drug 0.1 μM",5%
same,% CD8,"HIV-1 infected PBMCs; MN, drug 0.1 μM",95%
same,CD4/CD8 Ratio,"HIV-1 infected PBMCs; MN, drug 0.1 μM",0.05
same,% CD4,"HIV-1 infected PBMCs; MN, drug 1.0 μM",18%
same,% CD8,"HIV-1 infected PBMCs; MN, drug 1.0 μM",86%
same,CD4/CD8 Ratio,"HIV-1 infected PBMCs; MN, drug 1.0 μM",0.21
same,% CD4,"HIV-1 infected PBMCs; MN, drug 5.0 μM",25%
same,% CD8,"HIV-1 infected PBMCs; MN, drug 5.0 μM",81%
same,CD4/CD8 Ratio,"HIV-1 infected PBMCs; MN, drug 5.0 μM",0.31
same,% CD4,"HIV-1 infected PBMCs; MN, drug 10.0 μM",26%
same,% CD8,"HIV-1 infected PBMCs; MN, drug 10.0 μM",80%
same,CD4/CD8 Ratio,"HIV-1 infected PBMCs; MN, drug 10.0 μM",0.33
same,% CD4,"HIV-1 infected PBMCs; N. Amer. #1, drug 0.1 μM",21%
same,% CD8,"HIV-1 infected PBMCs; N. Amer. #1, drug 0.1 μM",84%
same,CD4/CD8 Ratio,"HIV-1 infected PBMCs; N. Amer. #1, drug 0.1 μM",0.25
same,% CD4,"HIV-1 infected PBMCs; N. Amer. #1, drug 1.0 μM",26%
same,% CD8,"HIV-1 infected PBMCs; N. Amer. #1, drug 1.0 μM",80%
same,CD4/CD8 Ratio,"HIV-1 infected PBMCs; N. Amer. #1, drug 1.0 μM",0.33
same,% CD4,"HIV-1 infected PBMCs; N. Amer. #1, drug 5.0 μM",27%
same,% CD8,"HIV-1 infected PBMCs; N. Amer. #1, drug 5.0 μM",81%
same,CD4/CD8 Ratio,"HIV-1 infected PBMCs; N. Amer. #1, drug 5.0 μM",0.33
same,% CD4,"HIV-1 infected PBMCs; N. Amer. #1, drug 10.0 μM",29%
same,% CD8,"HIV-1 infected PBMCs; N. Amer. #1, drug 10.0 μM",81%
same,CD4/CD8 Ratio,"HIV-1 infected PBMCs; N. Amer. #1, drug 10.0 μM",0.36
same,% CD4,"HIV-1 infected PBMCs; N. Amer. #2, drug 0.1 μM",4%
same,% CD8,"HIV-1 infected PBMCs; N. Amer. #2, drug 0.1 μM",98%
same,CD4/CD8 Ratio,"HIV-1 infected PBMCs; N. Amer. #2, drug 0.1 μM",0.04
same,% CD4,"HIV-1 infected PBMCs; N. Amer. #2, drug 1.0 μM",5%
same,% CD8,"HIV-1 infected PBMCs; N. Amer. #2, drug 1.0 μM",95%
same,CD4/CD8 Ratio,"HIV-1 infected PBMCs; N. Amer. #2, drug 1.0 μM",0.05
same,% CD4,"HIV-1 infected PBMCs; N. Amer. #2, drug 5.0 μM",28%
same,% CD8,"HIV-1 infected PBMCs; N. Amer. #2, drug 5.0 μM",82%
same,CD4/CD8 Ratio,"HIV-1 infected PBMCs; N. Amer. #2, drug 5.0 μM",0.34
same,% CD4,"HIV-1 infected PBMCs; N. Amer. #2, drug 10.0 μM",27%
same,% CD8,"HIV-1 infected PBMCs; N. Amer. #2, drug 10.0 μM",84%
same,CD4/CD8 Ratio,"HIV-1 infected PBMCs; N. Amer. #2, drug 10.0 μM",0.32
same,% CD4,"HIV-1 infected PBMCs; RF, drug 0.1 μM",10%
same,% CD8,"HIV-1 infected PBMCs; RF, drug 0.1 μM",92%
same,CD4/CD8 Ratio,"HIV-1 infected PBMCs; RF, drug 0.1 μM",0.11
same,% CD4,"HIV-1 infected PBMCs; RF, drug 1.0 μM",26%
same,% CD8,"HIV-1 infected PBMCs; RF, drug 1.0 μM",82%
same,CD4/CD8 Ratio,"HIV-1 infected PBMCs; RF, drug 1.0 μM",0.32
same,% CD4,"HIV-1 infected PBMCs; RF, drug 5.0 μM",31%
same,% CD8,"HIV-1 infected PBMCs; RF, drug 5.0 μM",83%
same,CD4/CD8 Ratio,"HIV-1 infected PBMCs; RF, drug 5.0 μM",0.37
same,% CD4,"HIV-1 infected PBMCs; RF, drug 10.0 μM",29%
same,% CD8,"HIV-1 infected PBMCs; RF, drug 10.0 μM",85%
same,CD4/CD8 Ratio,"HIV-1 infected PBMCs; RF, drug 10.0 μM",0.34
same,% CD4,"HIV-1 infected PBMCs; SE Asia isolate, drug 0.1 μM",2%
same,% CD8,"HIV-1 infected PBMCs; SE Asia isolate, drug 0.1 μM",99%
same,CD4/CD8 Ratio,"HIV-1 infected PBMCs; SE Asia isolate, drug 0.1 μM",0.02
same,% CD4,"HIV-1 infected PBMCs; SE Asia isolate, drug 1.0 μM",12%
same,% CD8,"HIV-1 infected PBMCs; SE Asia isolate, drug 1.0 μM",90%
same,CD4/CD8 Ratio,"HIV-1 infected PBMCs; SE Asia isolate, drug 1.0 μM",0.13
same,% CD4,"HIV-1 infected PBMCs; SE Asia isolate, drug 5.0 μM",29%
same,% CD8,"HIV-1 infected PBMCs; SE Asia isolate, drug 5.0 μM",82%
same,CD4/CD8 Ratio,"HIV-1 infected PBMCs; SE Asia isolate, drug 5.0 μM",0.35
same,% CD4,"HIV-1 infected PBMCs; SE Asia isolate, drug 10.0 μM",29%
same,% CD8,"HIV-1 infected PBMCs; SE Asia isolate, drug 10.0 μM",82%
same,CD4/CD8 Ratio,"HIV-1 infected PBMCs; SE Asia isolate, drug 10.0 μM",0.35
same,IC50,HIV-1 clinical isolates; clinical isolate 942716,860 ± 6 nM
same,IC50,HIV-1 clinical isolates; clinical isolate 942751,380 ± 3 nM
same,IC50,HIV-1 clinical isolates; clinical isolate BAKI (SI),230 ± 5 nM
same,IC50,HIV-1 clinical isolates; clinical isolate BLCH (NSI),3080 ± 6 nM
same,IC50,HIV-1 clinical isolates; clinical isolate JOGA (NSI),330 ± 4 nM
same,IC50,HIV-1 clinical isolates; clinical isolate N. Amer. #1,250 ± 3 nM
same,IC50,HIV-1 clinical isolates; clinical isolate N. Amer. #2,2920 ± 5 nM
same,IC50,HIV-1 clinical isolates; clinical isolate ROJO (SI),3900 ± 20 nM
same,IC50,HIV-1 clinical isolates; clinical isolate S. E. Asia,580 ± 3 nM
same,IC50,HIV-1 clinical isolates; clinical isolate VIHU (NSI),1300 ± 20 nM
same,IC50,HIV-1 clinical isolates; clinical isolate WEJO (SI),300 ± 10 nM
same,IC50,HIV-1 clinical isolates; clinical isolate WOME (SI),710 ± 2 nM
same,increase in IC50 when MOI of HIV-1RF changed from 0.01 to 1.28,[2]; CEM-SS,14 fold
same,IC50,"[2]; HIV-1 DV, SUP T1, read-out: IC50 virus production",60 ± 4 nM
same,IC50,"[2]; HIV-1 IIIB, AA5, read-out: IC50 virus production",< 320 nM
same,IC50,"[2]; HIV-1 IIIB, CEM-SS or MT4, read-out: Antiviral Assay IC50 IIIB",2830 nM
same,IC50,"[2]; HIV-1 IIIB, CEM-SS, read-out: IC50 virus production",2800 nM and 2830 nM
same,IC50,"[2]; HIV-1 IIIB, MT2, read-out: IC50 virus production",1940 ± 120 nM
same,IC50,"[2]; HIV-1 IIIB, MT4, read-out: IC50 virus production",150 ± 20 nM
same,TI (therapeutic index),[2]; HIV-1RF in MT2 cells,226
same,IC50,"[2]; HIV-1 RF, CEM-SS or MT4, read-out: Antiviral Assay IC50 RF",75 nM
same,IC50,"[2]; HIV-1 RF, CEM-SS, MOI 0.01, read-out: IC50 virus production",75 nM
same,IC50,"[2]; HIV-1 RF, MT4, read-out: IC50 virus production",37 ± 30 nM
same,TI (therapeutic index),[2]; HIV-1SKI in CEM-SS cells,3680
same,IC50,"[2]; HIV-1 SKI, CEM-SS or MT4, read-out: Antiviral Assay IC50 SKI",25 nM
same,IC50,"[2]; HIV-1 SKI, CEM-SS, MOI 0.01, read-out: IC50 virus production",25 ± 6 nM
same,IC50,"[2]; HIV-1 SKI, MT2, read-out: IC50 virus production",60 ± 1 nM
same,IC50,"[2]; IIIB (MT4), MOI 0.01, read-out: IC50 (cpe assay)",2700 nM
same,IC90,"[2]; IIIB (MT4), MOI 0.01",9200 nM
same,IC50,"[2]; IIIB (MT4), MOI 0.02, read-out: IC50 (cpe assay)",3100 nM
same,IC90,"[2]; IIIB (MT4), MOI 0.02",6600 nM
same,IC50,"[2]; IIIB (MT4), MOI 0.3, read-out: IC50 (cpe assay)",3380 nM
same,IC90,"[2]; IIIB (MT4), MOI 0.3",7000 nM
same,IC50,"[2]; IIIB (MT4), MOI 1, read-out: IC50 (cpe assay)",6800 nM
same,IC90,"[2]; IIIB (MT4), MOI 1",26000 nM
same,IC50,"[2]; RF (CEM-SS), MOI 0.01, read-out: IC50 (cpe assay)",200 nM
same,IC90,"[2]; RF (CEM-SS), MOI 0.01",500 nM
same,IC50,"[2]; RF (CEM-SS), MOI 0.02, read-out: IC50 (cpe assay)",410 nM
same,IC90,"[2]; RF (CEM-SS), MOI 0.02",1500 nM
same,IC90,"[2]; RF (CEM-SS), MOI 0.04",1560 nM
same,IC50,"[2]; RF (CEM-SS), MOI 0.08, read-out: IC50 (cpe assay)",700 nM
same,IC90,"[2]; RF (CEM-SS), MOI 0.08",1560 nM
same,IC50,"[2]; RF (CEM-SS), MOI 0.16, read-out: IC50 (cpe assay)",870 nM
same,IC90,"[2]; RF (CEM-SS), MOI 0.16",1600 nM
same,IC50,"[2]; RF (CEM-SS), MOI 0.32, read-out: IC50 (cpe assay)",1250 nM
same,IC90,"[2]; RF (CEM-SS), MOI 0.32",4700 nM
same,IC50,"[2]; RF (CEM-SS), MOI 0.64, read-out: IC50 (cpe assay)",2640 nM
same,IC90,"[2]; RF (CEM-SS), MOI 0.64",4750 nM
same,IC50,"[2]; RF (CEM-SS), MOI 1.28, read-out: IC50 (cpe assay)",2810 nM
same,IC90,"[2]; RF (CEM-SS), MOI 1.28",4770 nM
same,IC50,"[2]; anti-HIV-1 virus production, read-out: Cell Culture IC50",75 nM
